{"source": "patent US4599424A", "about": "“5-substituted thiadiazole ureas and their use as herbicides” (priority 1979, dated 1986)", "key": {"Cotton (CT) [1]": {"tested_on": "Cotton (CT)", "assay": "Post-emergence herbicide test, cotton", "assay_type": "in vivo, Gossypium hirsutum var. DPL smooth leaf", "details": "two weeks", "protocol": "(§1) Cotton (CT)--Gossypium hirsutum var. DPL smooth leaf\n(§2) All crop and weed species were planted individually in 3\" plastic pots containing potting soil. Four seeds each of corn, cotton, and snapbeans were seeded to a depth equal to the diameter of the seed. All other species were surface seeded and sprinkled with screened soil in an amount sufficient to cover the seed. Immediately after planting, all pots were watered by sub-irrigation in greenhouse trays. Pots for the pre-emergence phase were seeded one day before treatment.\n(§3) Planting dates for the post-emergence phase were varied so that all seedlings would reach the desired stage of development simultaneously. The proper stage of seedling development for treatment in the post-emergence phase is as follows:\ncotton: first true leaf 1\" in length; expanded cotyledons.\n(§4) Spray hood constants required to deliver the above volume are as follows:\n(§5) Formulations for spray applications were prepared in 50 ml volumes with the following three components:\n(§6) Formulations for the 4 lbs/acre rate were prepared by adjusting the amount of active ingredient accordingly.\n(§7) Spray applications were made in a hood containing a removable belt and fixed spray nozzle. For passage through the spray hood, one pot of each specie (pre-emergence phase) was placed on the rear half of the flat. Treatments were removed to the greenhouse after spraying. Watering during the observation period was done only by sub-irrigation.\n(§8) Two weeks after treatment, pre- and post-emergence injury or control was visually rated, and the results were as shown in the following tables. Pre-emergence data are provided in TABLE III and post-emergence data are provided in TABLE IV, for compounds having the formula illustrated in TABLE I. Correspondingly, pre-emergence and post-emergence data, respectively, are set forth in TABLES V AND VI, for compounds having the formula illustrated in TABLE II."}, "Turnip (TP) [2]": {"tested_on": "Turnip (TP)", "assay": "Post-emergence herbicide test, turnip", "assay_type": "in vivo, Brassica sp.", "details": "two weeks", "protocol": "(§9) Turnip (TP)--Brassica sp.\nas §2, §3\nPigweed and turnips: 1 or 2 true leaves above visible cotyledons.\nas §4\n(§10) Formulations for spray applications were prepared in 50 ml volumes with the following three components: […]\nas §7, §8"}, "Bean (BN)": {"tested_on": "Bean (BN)", "assay": "Post-emergence herbicide test, bean", "assay_type": "in vivo, Phaseolus vulgaris var. Black Valentine", "details": "two weeks", "protocol": "Bean (BN)--Phaseolus vulgaris var. Black Valentine\nas §2, §3\nBeans: primary leaves expanded, growing point at primary leaf nodes.\nas §4, §5, §6, §7, §8"}, "Turnip (TP) [3]": {"tested_on": "Turnip (TP)", "assay": "Pre-emergence herbicide test, turnip", "assay_type": "in vivo, Brassica sp.", "details": "two weeks", "protocol": "as §9, §2, §4, §10, §7, §8"}, "Crabgrass (CG) [4]": {"tested_on": "Crabgrass (CG)", "assay": "Post-emergence herbicide test, crabgrass", "assay_type": "in vivo, Digitaria sanguinalis", "details": "two weeks", "protocol": "(§11) Crabgrass (CG)--Digitaria sanguinalis\nas §2, §3, §4, §10, §7, §8"}, "Crabgrass (CG) [5]": {"tested_on": "Crabgrass (CG)", "assay": "Pre-emergence herbicide test, crabgrass", "assay_type": "in vivo, Digitaria sanguinalis", "details": "two weeks", "protocol": "as §11, §2, §4, §5, §6, §7, §8"}, "Cotton (CT) [6]": {"tested_on": "Cotton (CT)", "assay": "Pre-emergence herbicide test, cotton", "assay_type": "in vivo, Gossypium hirsutum var. DPL smooth leaf", "details": "Gossypium hirsutum, pre-emergence, 336 h, 4 lb/acre, two weeks", "protocol": "as §1, §2\nCompounds were tested at rates of application equivalent to 8 lbs. of actual compound per acre in a spray volume of 38 gallons per acre. Spray hood constants required to deliver the above volume are as follows:\nas §5, §6, §7, §8"}}, "data": [{"smiles": "NC(=O)Nc1nnc(C(F)(F)F)s1", "note": "[Example 70]", "values": [{"measurement": "POST-EMERGENCE ACTIVITY, % CONTROL", "setting": "Cotton (CT) [1]; 5 lb/acre", "value": 20, "unit": "%"}, {"measurement": "POST-EMERGENCE ACTIVITY, % CONTROL", "setting": "Cotton (CT) [1]; 10 lb/acre", "value": 20, "unit": "%"}, {"measurement": "POST-EMERGENCE ACTIVITY, % CONTROL", "setting": "Turnip (TP) [2]; 5 lb/acre", "value": 80, "unit": "%"}, {"measurement": "POST-EMERGENCE ACTIVITY, % CONTROL", "setting": "Turnip (TP) [2]; 10 lb/acre", "value": 80, "unit": "%"}, {"measurement": "POST-EMERGENCE ACTIVITY, % CONTROL", "setting": "Bean (BN); 5 lb/acre", "value": 50, "unit": "%"}, {"measurement": "POST-EMERGENCE ACTIVITY, % CONTROL", "setting": "Bean (BN); 10 lb/acre", "value": 50, "unit": "%"}, {"measurement": "PRE-EMERGENCE ACTIVITY, % CONTROL", "setting": "Turnip (TP) [3]; 5 lb/acre", "value": 10, "unit": "%"}, {"measurement": "PRE-EMERGENCE ACTIVITY, % CONTROL", "setting": "Turnip (TP) [3]; 10 lb/acre", "value": 10, "unit": "%"}, {"measurement": "POST-EMERGENCE ACTIVITY, % CONTROL", "setting": "Crabgrass (CG) [4]; 5 lb/acre", "value": 20, "unit": "%"}, {"measurement": "POST-EMERGENCE ACTIVITY, % CONTROL", "setting": "Crabgrass (CG) [4]; 10 lb/acre", "value": 20, "unit": "%"}, {"measurement": "PRE-EMERGENCE ACTIVITY, % CONTROL", "setting": "Crabgrass (CG) [5]; 5 lb/acre", "value": 10, "unit": "%"}, {"measurement": "PRE-EMERGENCE ACTIVITY, % CONTROL", "setting": "Crabgrass (CG) [5]; 10 lb/acre", "value": 10, "unit": "%"}]}, {"smiles": "CNC(=O)Nc1nnc(-c2cccc(C(F)(F)F)c2)s1", "note": "[Example 73]", "values": [{"measurement": "pest or weed control at 4483.4 g/ha", "setting": "Cotton (CT) [6]", "value": 10, "unit": "%"}, {"measurement": "pest or weed control at 4483.4 g/ha", "setting": "Crabgrass (CG) [4]; Digitaria sanguinalis, post-emergence, 336 h, 4 lb/acre", "value": 80, "unit": "%"}]}, {"smiles": "CCSc1nnc(N(C)C(=O)NC)s1", "note": "[Example 89]", "values": [{"measurement": "pest or weed control at 560.425 g/ha", "setting": "Bean (BN); Phaseolus vulgaris, post-emergence, 336 h, 0.5 lb/acre", "value": 100, "unit": "%"}]}]}
